Entries after “also recorded” stand apart in the source; their conditions may differ.
Experiments:
A549 cells [1] = experiment: Colony formation assay; type: cell-based, human; settings: 5 and 10 μM
Description: A549 cells (1 × 10^3 cells/well) were seeded into six-well plates and then each compound was treated at 5 and 10 μM for 12 h. The medium was changed every two days, and the cells were cultured in a fresh medium for 10 days. The obtained colonies were fixed with 25% glutaraldehyde for 20 min and then stained with 0.1% crystal violet for 15 min.

A549 cells [2] = experiment: Levels of sphingosine, ceramide and S1P (ELISA); type: cell-based, human; settings: 5 and 10 μM
Description: After seeding 1 × 10^6 cells/well into a 6-well plate and incubating for 24 h, the synthetic compounds were treated by concentration. Then, cells were collected and freezing and thawing were repeated three to five times, and centrifuged supernatant was used for testing. The levels of sphingosine, ceramide, and S1P were measured according to the proposed manual using each ELISA kit (Mybiosource, Inc., San Diego, CA, USA).

A549 cells [3] = experiment: Annexin V-FITC apoptosis analysis; type: cell-based, human; settings: 24 h
Description: A549 cells (1 × 10^5 cells) were seeded in into a 12-well plate. […] After harvesting the cells, the binding buffer was added and then incubated with annexin-V-FITC and PI at room temperature for 15 min. The stained cells were analyzed with MACS Quant Analyzer 10 Flow Cytometer (Miltenyi Biotec, Bergisch Gladbach, Germany) within 1 h.

A549 cells [4] = experiment: Mitochondrial membrane potential measurement (JC-10); type: cell-based, human; settings: 10 μM, 24 h
Description: To access the mechanism of cell death, Mitochondrial Membrane Potential (MMP) was performed using JC-10 cationic dye. […] Cells were collected, and 20 μM JC-10 dye prepared in HBSS solution (0.14 M NaCl, 0.005 M KCl, 0.001 M CaCl2, 0.005 M MgSO4-7H2O, 0.0004 M MgSO4-6H2O, 0.0003 M Na2HPO4-2H2O, 0.0004 M KH2PO4, 0.006 M D-glucose, 0.004 M NaHCO3, 0.002 M HEPES, and 0.02% Pluronic® F-127) was added to the cell for 30 min and mixed. The samples were protected from light and measured by using the MACS Quant Analyzer 10 Flow cytometer.

A549 cells [5] = experiment: Western blotting of apoptosis-related proteins; type: cell-based, human; settings: 5 and 10 μM, 24 h
Description: Western blotting measured changes in apoptosis-related proteins (PARP, BAX, BCL-2, Caspase-3). A549 cells (1 × 10^6 cells per well in 6-well plates) were incubated for 24 h. Cells were treated with concentrations of the compounds and incubated for 24 h. Then, cells were dissolved on ice for two hours with a lysis buffer containing a mixture of protease and phosphatase inhibitors. The lysate was centrifuged at 12,000× g for 15 min at 4 °C, and the supernatant was collected. Protein concentrations were measured using a bicinchoninic acid protein assay kit. Total protein was separated by 8–10% sodium dodecyl sulfate–polyacrylamide gel electrophoresis (SDS-PAGE) and transferred onto polyvinylidene fluoride (PVDF) membranes. After being blocked with 5% skim milk, membranes were probed overnight at 4 °C with primary antibodies against SK1, SK2, PARP, BAX, Bcl-2, Caspase-3, and β-actin. Then, the membranes were incubated with subsequent secondary antibodies at room temperature. Then, the protein expressions were measured by Amersham Imager 680 (GE Healthcare, Leiden, WZ, The Netherlands).

[6] = Serum analysis of tumor xenograft mice; type: in vivo; settings: serum biochemical assays; 5 mg/kg i.p., 29 days
Description: Five-week-old BALB/c-nu/nu male mice were purchased from Orient Bio Inc. (Seongnam, Gyeonggi-do, Korea). The mice were housed in a climate-controlled room (22 ± 2 °C, 50 ± 10% relative humidity) and specific pathogen-free conditions with a 12 h light/dark cycle and adapted for a week with free access to food and water. Cages, bedding, and drinking water were autoclaved and changed regularly. The cancer cell suspension {3 × 10^7 cells/ 150 μL phosphate-buffered saline (PBS)} was inoculated subcutaneously into the right flank. Measurable tumors were found 7–8 days after cell inoculation, and tumors grew in 90% of the injection site two weeks later. The mice were randomly divided into test groups (12 mice per group) when the tumor volume reached 100 mm^2 about two weeks after the inoculation (experimental day 0). The control group (vehicle-treated group) and Compound 4 (5 mg/kg) were administered i.p. 3 times a week. The formulation of Compound 4 was prepared in a mixture of 10% DMSO + 90% PBS. The tumor growth rate and body weights in each of the two groups were measured every three days using a Vernier caliper and a digital weighing balance, respectively. Tumor volume was calculated as l × b^2 × 0.52, where l is the length and b is the width. […]
Blood samples were centrifuged at 3000× g for 20 min, and levels of ALT, AST, ALP, sphingosine, ceramide, and S1P were measured using a kit.

SK2 = target: T1, SK2 (Homo sapiens, UniProt Q9NRA0); experiment: SK2 activity assay (Adapta screening system); settings: read-out: SK2 inhibitory efficacy
T1 sequence (Q9NRA0 1-654): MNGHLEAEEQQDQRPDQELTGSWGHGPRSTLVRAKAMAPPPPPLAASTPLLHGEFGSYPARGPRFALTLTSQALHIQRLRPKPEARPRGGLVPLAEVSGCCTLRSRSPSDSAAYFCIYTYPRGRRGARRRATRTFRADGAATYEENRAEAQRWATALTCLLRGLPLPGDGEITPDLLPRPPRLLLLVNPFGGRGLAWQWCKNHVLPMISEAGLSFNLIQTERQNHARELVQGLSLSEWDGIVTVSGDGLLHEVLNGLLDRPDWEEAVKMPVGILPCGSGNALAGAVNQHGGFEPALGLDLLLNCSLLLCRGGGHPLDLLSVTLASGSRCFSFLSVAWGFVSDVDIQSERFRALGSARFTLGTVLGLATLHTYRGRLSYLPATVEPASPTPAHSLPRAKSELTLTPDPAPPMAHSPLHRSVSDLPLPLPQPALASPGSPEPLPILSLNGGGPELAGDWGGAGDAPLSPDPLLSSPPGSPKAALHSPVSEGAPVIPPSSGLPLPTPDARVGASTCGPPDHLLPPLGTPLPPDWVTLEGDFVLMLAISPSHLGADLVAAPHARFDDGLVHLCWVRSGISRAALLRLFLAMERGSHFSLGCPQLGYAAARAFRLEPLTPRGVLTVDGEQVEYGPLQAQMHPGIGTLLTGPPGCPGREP

## Cc1cc(CN(Cc2cc(C)cc(CS(=O)(=O)c3ccccc3)c2)c2ccc(CCN3CCC(CO)CC3)cc2)cc(CS(=O)(=O)c2ccccc2)c1 [Compound 4, (1-(4-(Bis(3-methyl-5-((phenylsulfonyl)methyl)benzyl)amino)phenethyl)piperidin-4-yl)methanol]
A549 cells [1]
  colony formation: reduce colony formation in a concentration-dependent manner
A549 cells [2]
  S1P levels: reduced; also recorded: inhibited S1P at a level similar to that of PF-543
  ceramide levels: increased
  sphingosine levels: slightly lower sphingosine expression than PF-543
A549 cells [3]; 5 μM
  apoptotic effect (annexin-V): significant effect
A549 cells [3]; 10 μM
  apoptotic effect (annexin-V): significantly higher apoptotic effect compared to PF-543
A549 cells [4]
  change in mitochondrial membrane potential (MMP), JC-10: significantly increased compared to that after treatment with PF-543
A549 cells [5]
  levels of PARP, Caspase-3 and cleaved PARP: levels of PARP and Caspase-3 were decreased and cleavage of PARP was increased
[6]
  hepatotoxicity: does not appear to cause hepatotoxicity
SK2
  inhibition at 10 µM: 49%

Reference: publication PMC9611471 (Pharmaceutics, 2022)
